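Tested at 5 concentrations; 48 h exposure; 96-well plates; endpoints linearly interpolated, else capped at highest concentration. Definition used: TGI = concentration required for complete inhibition of growth.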
How the values were obtained:
Experiment in all cases: growth of human tumour cells (NCI), 48 h
786-0 renal = tested on: 786-0 renal
SF-539 CNS = tested on: SF-539 CNS
SK-MEL-28 melanoma = tested on: SK-MEL-28 melanoma
SR leukemia = tested on: SR leukemia
HCT-15 colon = tested on: HCT-15 colon
IGROV1 ovarian = tested on: IGROV1 ovarian
UACC-257 melanoma = tested on: UACC-257 melanoma
SNB-19 CNS = tested on: SNB-19 CNS
LXFL 529 NSCLC = tested on: LXFL 529 NSCLC
HT29 colon = tested on: HT29 colon
MOLT-4 leukemia = tested on: MOLT-4 leukemia
UO-31 renal = tested on: UO-31 renal
HL-60(TB) leukemia = tested on: HL-60(TB) leukemia
SF-295 CNS = tested on: SF-295 CNS
HOP-62 NSCLC = tested on: HOP-62 NSCLC
ACHN renal = tested on: ACHN renal
NCI-H23 lung = tested on: NCI-H23 lung
OVCAR-5 ovarian = tested on: OVCAR-5 ovarian
SNB-75 CNS = tested on: SNB-75 CNS
NCI-H226 lung = tested on: NCI-H226 lung
KM12 colon = tested on: KM12 colon
HCC-2998 colon = tested on: HCC-2998 colon
SK-MEL-2 melanoma = tested on: SK-MEL-2 melanoma
NCI-H522 lung = tested on: NCI-H522 lung
OVCAR-3 ovarian = tested on: OVCAR-3 ovarian
HCT-116 colon = tested on: HCT-116 colon
UACC-62 melanoma = tested on: UACC-62 melanoma
K-562 leukemia = tested on: K-562 leukemia
A498 renal = tested on: A498 renal
U251 CNS = tested on: U251 CNS
M14 melanoma = tested on: M14 melanoma
SF-268 CNS = tested on: SF-268 CNS
CCRF-CEM leukemia = tested on: CCRF-CEM leukemia
TK-10 renal = tested on: TK-10 renal
SK-OV-3 ovarian = tested on: SK-OV-3 ovarian
SW-620 colon = tested on: SW-620 colon
XF 498 CNS = tested on: XF 498 CNS
LOX IMVI melanoma = tested on: LOX IMVI melanoma
CAKI-1 renal = tested on: CAKI-1 renal
NCI-H460 lung = tested on: NCI-H460 lung
RXF 393 renal = tested on: RXF 393 renal
OVCAR-8 ovarian = tested on: OVCAR-8 ovarian
HOP-92 NSCLC = tested on: HOP-92 NSCLC
A549 NSCLC = tested on: A549 NSCLC
EKVX NSCLC = tested on: EKVX NSCLC
DMS 273 small cell lung = tested on: DMS 273 small cell lung
SNB-78 CNS = tested on: SNB-78 CNS
SN12C renal = tested on: SN12C renal
OVCAR-4 ovarian = tested on: OVCAR-4 ovarian
M19-MEL melanoma = tested on: M19-MEL melanoma
KM20L2 colon = tested on: KM20L2 colon
HOP-18 NSCLC = tested on: HOP-18 NSCLC
MALME-3M melanoma = tested on: MALME-3M melanoma
DLD-1 colon = tested on: DLD-1 colon
RPMI-8226 leukemia = tested on: RPMI-8226 leukemia
COLO 205 colon = tested on: COLO 205 colon
DMS 114 small cell lung = tested on: DMS 114 small cell lung
HS 578T breast = tested on: HS 578T breast
PC-3 prostate = tested on: PC-3 prostate
BT-549 breast = tested on: BT-549 breast
DU-145 prostate = tested on: DU-145 prostate
MCF7 breast = tested on: MCF7 breast
NCI/ADR-RES ovarian = tested on: NCI/ADR-RES ovarian
MDA-N = tested on: MDA-N
T-47D breast = tested on: T-47D breast
MDA-MB-231 breast = tested on: MDA-MB-231 breast
SK-MEL-5 melanoma = tested on: SK-MEL-5 melanoma
MDA-MB-435 = tested on: MDA-MB-435

For `CN(C)c1c([O-])c(=[N+](C)C)c1=O`, the TGI (786-0 renal) was over 100 µM, the TGI (SF-539 CNS) was over 100 µM and the TGI (SK-MEL-28 melanoma) was over 100 µM. It also gave a TGI (SR leukemia) of over 100 µM, a TGI (HCT-15 colon) of over 100 µM and a TGI (IGROV1 ovarian) of over 100 µM. It also gave a TGI (UACC-257 melanoma) of over 100 µM, a TGI (SNB-19 CNS) of over 100 µM and a TGI (LXFL 529 NSCLC) of over 100 µM. For the same molecule, the TGI (HT29 colon) was over 100 µM, the TGI (MOLT-4 leukemia) was over 100 µM and the TGI (UO-31 renal) was over 100 µM. The TGI (HL-60(TB) leukemia) was over 100 µM, the TGI (SF-295 CNS) was over 100 µM and the TGI (HOP-62 NSCLC) was over 100 µM. For the same molecule, the TGI (ACHN renal) was over 100 µM, the TGI (NCI-H23 lung) was over 100 µM and the TGI (OVCAR-5 ovarian) was over 100 µM. The TGI (SNB-75 CNS) was over 100 µM, the TGI (NCI-H226 lung) was over 100 µM and the TGI (KM12 colon) was over 100 µM. It also gave a TGI (HCC-2998 colon) of over 100 µM, a TGI (SK-MEL-2 melanoma) of over 100 µM and a TGI (NCI-H522 lung) of over 100 µM. The TGI (OVCAR-3 ovarian) was over 100 µM, the TGI (HCT-116 colon) was over 100 µM and the TGI (UACC-62 melanoma) was over 100 µM. For the same molecule, the TGI (K-562 leukemia) was over 100 µM, the TGI (A498 renal) was over 100 µM and the TGI (U251 CNS) was over 100 µM. It also gave a TGI (M14 melanoma) of over 100 µM, a TGI (SF-268 CNS) of over 100 µM and a TGI (CCRF-CEM leukemia) of over 100 µM. The TGI (TK-10 renal) was over 100 µM, the TGI (SK-OV-3 ovarian) was over 100 µM and the TGI (SW-620 colon) was over 100 µM. It also gave a TGI (XF 498 CNS) of over 100 µM, a TGI (LOX IMVI melanoma) of over 100 µM and a TGI (CAKI-1 renal) of over 100 µM. The TGI (NCI-H460 lung) was over 100 µM, the TGI (RXF 393 renal) was over 100 µM and the TGI (OVCAR-8 ovarian) was over 100 µM. For the same molecule, the TGI (HOP-92 NSCLC) was over 100 µM, the TGI (A549 NSCLC) was over 100 µM and the TGI (EKVX NSCLC) was over 100 µM. For the same molecule, the TGI (DMS 273 small cell lung) was over 100 µM, the TGI (SNB-78 CNS) was over 100 µM and the TGI (SN12C renal) was over 100 µM.

`CCc1cccc(C)c1NC(=O)C(=O)Cc1nc2ccccc2o1` showed a TGI (786-0 renal) of over 100 µM, a TGI (SF-539 CNS) of over 100 µM and a TGI (SK-MEL-28 melanoma) of over 100 µM. The TGI (SR leukemia) was over 100 µM, the TGI (OVCAR-4 ovarian) was over 100 µM and the TGI (HCT-15 colon) was over 100 µM. It also gave a TGI (IGROV1 ovarian) of over 100 µM, a TGI (M19-MEL melanoma) of over 100 µM and a TGI (UACC-257 melanoma) of over 100 µM. The TGI (SNB-19 CNS) was over 100 µM, the TGI (LXFL 529 NSCLC) was over 100 µM and the TGI (HT29 colon) was over 100 µM. For the same molecule, the TGI (KM20L2 colon) was over 100 µM, the TGI (MOLT-4 leukemia) was over 100 µM and the TGI (HOP-18 NSCLC) was over 100 µM. It also gave a TGI (UO-31 renal) of over 100 µM, a TGI (HL-60(TB) leukemia) of over 100 µM and a TGI (MALME-3M melanoma) of over 100 µM. The TGI (SF-295 CNS) was over 100 µM, the TGI (HOP-62 NSCLC) was over 100 µM and the TGI (DLD-1 colon) was over 100 µM. The TGI (ACHN renal) was over 100 µM, the TGI (NCI-H23 lung) was over 100 µM and the TGI (OVCAR-5 ovarian) was over 100 µM. It also gave a TGI (RPMI-8226 leukemia) of over 100 µM, a TGI (NCI-H226 lung) of over 100 µM and a TGI (HCC-2998 colon) of over 100 µM. For the same molecule, the TGI (SK-MEL-2 melanoma) was over 100 µM, the TGI (NCI-H522 lung) was over 100 µM and the TGI (OVCAR-3 ovarian) was over 100 µM. The TGI (HCT-116 colon) was over 100 µM, the TGI (UACC-62 melanoma) was over 100 µM and the TGI (K-562 leukemia) was over 100 µM. It also gave a TGI (A498 renal) of over 100 µM, a TGI (U251 CNS) of over 100 µM and a TGI (M14 melanoma) of over 100 µM. It also gave a TGI (SF-268 CNS) of over 100 µM, a TGI (CCRF-CEM leukemia) of over 100 µM and a TGI (COLO 205 colon) of over 100 µM. For the same molecule, the TGI (TK-10 renal) was over 100 µM, the TGI (SK-OV-3 ovarian) was over 100 µM and the TGI (SW-620 colon) was over 100 µM. For the same molecule, the TGI (XF 498 CNS) was over 100 µM, the TGI (LOX IMVI melanoma) was over 100 µM and the TGI (CAKI-1 renal) was over 100 µM. For the same molecule, the TGI (NCI-H460 lung) was over 100 µM, the TGI (RXF 393 renal) was over 100 µM and the TGI (DMS 114 small cell lung) was over 100 µM. It also gave a TGI (OVCAR-8 ovarian) of over 100 µM, a TGI (HOP-92 NSCLC) of over 100 µM and a TGI (EKVX NSCLC) of over 100 µM. It also gave a TGI (SNB-78 CNS) of over 100 µM and a TGI (SN12C renal) of over 100 µM.

Molecule `Cc1ccc(-c2cc(-c3ccc(Cl)cc3)nc(/N=C3\C(=O)N(CN4CCOCC4)c4ccc(Cl)cc43)n2)cc1` has a TGI (786-0 renal) of 44.5 µM, a TGI (HS 578T breast) of over 100 µM and a TGI (SF-539 CNS) of 59.5 µM. For the same molecule, the TGI (SK-MEL-28 melanoma) was over 100 µM, the TGI (SR leukemia) was over 100 µM and the TGI (PC-3 prostate) was over 100 µM. It also gave a TGI (OVCAR-4 ovarian) of over 100 µM, a TGI (HCT-15 colon) of over 100 µM and a TGI (IGROV1 ovarian) of 33.1 µM. It also gave a TGI (BT-549 breast) of over 100 µM, a TGI (UACC-257 melanoma) of over 100 µM and a TGI (SNB-19 CNS) of over 100 µM. For the same molecule, the TGI (HT29 colon) was 43.6 µM, the TGI (MOLT-4 leukemia) was 57 µM and the TGI (UO-31 renal) was 60.3 µM. It also gave a TGI (HL-60(TB) leukemia) of 41.4 µM, a TGI (MALME-3M melanoma) of over 100 µM and a TGI (SF-295 CNS) of over 100 µM. For the same molecule, the TGI (HOP-62 NSCLC) was 51.8 µM, the TGI (DU-145 prostate) was 47.7 µM and the TGI (MCF7 breast) was 79.2 µM. The TGI (ACHN renal) was 48.5 µM, the TGI (NCI-H23 lung) was 57.6 µM and the TGI (OVCAR-5 ovarian) was over 100 µM. The TGI (RPMI-8226 leukemia) was over 100 µM, the TGI (SNB-75 CNS) was 97.1 µM and the TGI (NCI-H226 lung) was over 100 µM. For the same molecule, the TGI (KM12 colon) was 56.8 µM, the TGI (HCC-2998 colon) was 36.5 µM and the TGI (SK-MEL-2 melanoma) was 39.9 µM. It also gave a TGI (NCI-H522 lung) of 36.7 µM, a TGI (NCI/ADR-RES ovarian) of 61.3 µM and a TGI (OVCAR-3 ovarian) of over 100 µM. It also gave a TGI (HCT-116 colon) of 40.9 µM, a TGI (UACC-62 melanoma) of 93.2 µM and a TGI (K-562 leukemia) of 90.9 µM. For the same molecule, the TGI (A498 renal) was 56.7 µM, the TGI (U251 CNS) was 36.3 µM and the TGI (M14 melanoma) was over 100 µM. For the same molecule, the TGI (MDA-N) was over 100 µM, the TGI (SF-268 CNS) was 88.1 µM and the TGI (CCRF-CEM leukemia) was over 100 µM. The TGI (COLO 205 colon) was 49.7 µM, the TGI (T-47D breast) was 79.8 µM and the TGI (TK-10 renal) was 72.2 µM. It also gave a TGI (MDA-MB-231 breast) of over 100 µM, a TGI (SK-OV-3 ovarian) of 84.4 µM and a TGI (SW-620 colon) of over 100 µM. For the same molecule, the TGI (LOX IMVI melanoma) was over 100 µM, the TGI (SK-MEL-5 melanoma) was 38.4 µM and the TGI (CAKI-1 renal) was 85.5 µM. It also gave a TGI (MDA-MB-435) of 65.9 µM, a TGI (NCI-H460 lung) of 81.2 µM and a TGI (RXF 393 renal) of 26.9 µM. It also gave a TGI (OVCAR-8 ovarian) of 55.4 µM, a TGI (HOP-92 NSCLC) of 62.2 µM and a TGI (A549 NSCLC) of over 100 µM. It also gave a TGI (EKVX NSCLC) of 89.4 µM and a TGI (SN12C renal) of 59.1 µM.

— PubChem BioAssay (NCI)
